# Species: Rattus norvegicus
# Assay: DrugMatrix - Regimen: Daily Repeat
# Type: toxicity, organism-based, Sprague-Dawley
# Design: regimen Daily Repeat, gender Male, age 6-8 weeks
# Conditions: in vivo, po, 41 mg/kg, route oral GAVAGE, dose level Low, vehicle 100 % WATER; for ABSOLUTE BASOPHIL / ABSOLUTE EOSINOPHIL / ABSOLUTE LYMPHOCYTE / ABSOLUTE MONOCYTE / ABSOLUTE SEGMENTED NEUTROPHIL / BASOPHIL / EOSINOPHIL / ERYTHROCYTE COUNT / HEMATOCRIT / HEMOGLOBIN / LEUKOCYTE COUNT / LYMPHOCYTE / MEAN CORPUSCULAR HEMOGLOBIN / MEAN CORPUSCULAR HEMOGLOBIN CONCENTRATION / MEAN CORPUSCULAR VOLUME / MONOCYTE / NEUTROPHIL / NUCLEATED RED BLOOD CELLS / PLATELET COUNT: tissue Blood; for ALANINE AMINOTRANSFERASE / ALBUMIN / ALKALINE PHOSPHATASE / ASPARTATE AMINOTRANSFERASE / BLOOD UREA NITROGEN / CARBON DIOXIDE / CHLORIDE / CHOLESTEROL / CREATINE PHOSPHOKINASE / CREATININE / GLUCOSE / LACTATE DEHYDROGENASE / LIPASE / PHOSPHORUS / POTASSIUM / SODIUM / TOTAL BILIRUBIN / TOTAL PROTEIN / URIC ACID: tissue Plasma
compound,measurement,setting,value
CC(O)(P(=O)(O)O)P(=O)(O)O [ETIDRONIC ACID],ABSOLUTE BASOPHIL,"72 h, time 3 day",0 CELLS/uL
same,ABSOLUTE EOSINOPHIL,"72 h, time 3 day",0 CELLS/uL
same,ABSOLUTE LYMPHOCYTE,"72 h, time 3 day",15847 CELLS/uL
same,ABSOLUTE MONOCYTE,"72 h, time 3 day",485 CELLS/uL
same,ABSOLUTE SEGMENTED NEUTROPHIL,"72 h, time 3 day",1868 CELLS/uL
same,BASOPHIL,"72 h, time 3 day",0%
same,EOSINOPHIL,"72 h, time 3 day",0%
same,ERYTHROCYTE COUNT,"72 h, time 3 day",5.74 x10E6/uL
same,HEMATOCRIT,"72 h, time 3 day",35.63%
same,HEMOGLOBIN,"72 h, time 3 day",13.33 G/DL
same,LEUKOCYTE COUNT,"72 h, time 3 day",18.2 x10E3/uL
same,LYMPHOCYTE,"72 h, time 3 day",86.67%
same,MEAN CORPUSCULAR HEMOGLOBIN,"72 h, time 3 day",23.27 pg
same,MEAN CORPUSCULAR HEMOGLOBIN CONCENTRATION,"72 h, time 3 day",37.43 G/DL
same,MEAN CORPUSCULAR VOLUME,"72 h, time 3 day",62.13 fL
same,MONOCYTE,"72 h, time 3 day",2.67%
same,NEUTROPHIL,"72 h, time 3 day",10.67%
same,NUCLEATED RED BLOOD CELLS,"72 h, time 3 day",0 /100WBC
same,PLATELET COUNT,"72 h, time 3 day",1274.67 x10E3/uL
same,ALANINE AMINOTRANSFERASE,"72 h, time 3 day",42.33 u/L
same,ALBUMIN,"72 h, time 3 day",4.67 G/DL
same,ALKALINE PHOSPHATASE,"72 h, time 3 day",379 u/L
same,ASPARTATE AMINOTRANSFERASE,"72 h, time 3 day",79 u/L
same,BLOOD UREA NITROGEN,"72 h, time 3 day",20.67 mg/dL
same,CARBON DIOXIDE,"72 h, time 3 day",24 mmol/L
same,CHLORIDE,"72 h, time 3 day",100 MEQ/L
same,CHOLESTEROL,"72 h, time 3 day",62.33 mg/dL
same,CREATINE PHOSPHOKINASE,"72 h, time 3 day",167.33 u/L
same,CREATININE,"72 h, time 3 day",0.19 mg/dL
same,GLUCOSE,"72 h, time 3 day",153 mg/dL
same,LACTATE DEHYDROGENASE,"72 h, time 3 day",126 u/L
same,LIPASE,"72 h, time 3 day",9.33 u/L
same,PHOSPHORUS,"72 h, time 3 day",12.13 mg/dL
same,POTASSIUM,"72 h, time 3 day",7.21 MEQ/L
same,SODIUM,"72 h, time 3 day",143.1 MEQ/L
same,TOTAL BILIRUBIN,"72 h, time 3 day",0.2 mg/dL
same,TOTAL PROTEIN,"72 h, time 3 day",5.6 G/DL
same,URIC ACID,"72 h, time 3 day",1.7 mg/dL
same,ABSOLUTE BASOPHIL,"120 h, time 5 day",0 CELLS/uL
same,ABSOLUTE EOSINOPHIL,"120 h, time 5 day",0 CELLS/uL
same,ABSOLUTE LYMPHOCYTE,"120 h, time 5 day",11460.33 CELLS/uL
same,ABSOLUTE MONOCYTE,"120 h, time 5 day",399 CELLS/uL
same,ABSOLUTE SEGMENTED NEUTROPHIL,"120 h, time 5 day",1374 CELLS/uL
same,BASOPHIL,"120 h, time 5 day",0%
same,EOSINOPHIL,"120 h, time 5 day",0%
same,ERYTHROCYTE COUNT,"120 h, time 5 day",5.69 x10E6/uL
same,HEMATOCRIT,"120 h, time 5 day",35%
same,HEMOGLOBIN,"120 h, time 5 day",13.13 G/DL
same,LEUKOCYTE COUNT,"120 h, time 5 day",13.23 x10E3/uL
same,LYMPHOCYTE,"120 h, time 5 day",86.67%
same,MEAN CORPUSCULAR HEMOGLOBIN,"120 h, time 5 day",23.1 pg
same,MEAN CORPUSCULAR HEMOGLOBIN CONCENTRATION,"120 h, time 5 day",37.57 G/DL
same,MEAN CORPUSCULAR VOLUME,"120 h, time 5 day",61.53 fL
same,MONOCYTE,"120 h, time 5 day",3%
same,NEUTROPHIL,"120 h, time 5 day",10.33%
same,NUCLEATED RED BLOOD CELLS,"120 h, time 5 day",0 /100WBC
same,PLATELET COUNT,"120 h, time 5 day",1338.67 x10E3/uL
same,ALANINE AMINOTRANSFERASE,"120 h, time 5 day",43 u/L
same,ALBUMIN,"120 h, time 5 day",4.23 G/DL
same,ALKALINE PHOSPHATASE,"120 h, time 5 day",323.33 u/L
same,ASPARTATE AMINOTRANSFERASE,"120 h, time 5 day",88.33 u/L
same,BLOOD UREA NITROGEN,"120 h, time 5 day",18.67 mg/dL
same,CARBON DIOXIDE,"120 h, time 5 day",23 mmol/L
same,CHLORIDE,"120 h, time 5 day",108.5 MEQ/L
same,CHOLESTEROL,"120 h, time 5 day",50 mg/dL
same,CREATINE PHOSPHOKINASE,"120 h, time 5 day",367.67 u/L
same,CREATININE,"120 h, time 5 day",0.18 mg/dL
same,GLUCOSE,"120 h, time 5 day",149.33 mg/dL
same,LACTATE DEHYDROGENASE,"120 h, time 5 day",265.67 u/L
same,LIPASE,"120 h, time 5 day",8.5 u/L
same,PHOSPHORUS,"120 h, time 5 day",10.7 mg/dL
same,POTASSIUM,"120 h, time 5 day",5.74 MEQ/L
same,SODIUM,"120 h, time 5 day",146.55 MEQ/L
same,TOTAL BILIRUBIN,"120 h, time 5 day",0.2 mg/dL
same,TOTAL PROTEIN,"120 h, time 5 day",5.8 G/DL
same,URIC ACID,"120 h, time 5 day",1.53 mg/dL

# From ChEMBL document CHEMBL3885881, “DrugMatrix”
